Assay results taken from article PMC5980705 (Pediatric blood & cancer, 2018).

Tests used:
[1] = cited from earlier work
[2] = in the combination of dasatinib and crizotinib, administered once daily, children
[3] = Pharmacokinetic studies of crizotinib and dasatinib in patients; format: in vivo, human
[4] = test system: BCRP; conditions: cited from earlier work
[5] = test system: p-glycoprotein; conditions: cited from earlier work
[6] = test system: ERK (p-ERK/total ERK) in peripheral-blood mononuclear cells; assay: Total and phosphorylated ERK in PBMC before and 3 hours after dasatinib; format: in vivo, human; conditions: after dosing of dasatinib, paired samples

| Structure (SMILES) | CNS penetration [1] | maximum tolerated dose (MTD) [2] | AUC0→t ([3]; dose 215 mg/m^2, day 1, 8 patients, t=∞, median (range)) | AUC0→t ([3]; dose 215 mg/m^2, day 14, 4 patients, t=24 hours, median (range)) | Tmax ([3]; human, in vivo) | Cmax ([3]; human, in vivo, 165 mg/m2) | Cmax ([3]; human, in vivo, 165 mg/m2, Cmax) | half-life ([3]; human, in vivo, elimination half-life, crizotinib day 1 of therapy, 25 patients, median, range 9.8 to 34.7) | half-life ([3]; human, in vivo, elimination half-life, crizotinib day 14 of therapy, 19 patients, median, range 8.0 to 36.5) | substrate of BCRP [4] | substrate of p-glycoprotein [5] | change in ratio of p-ERK/total ERK in PBMC [6] | half-life ([3]; human, in vivo) | AUC0→t ([3]; human, in vivo, 50 mg/m2) | Cmax ([3]; human, in vivo, 50 mg/m2) | AUC0→t ([3]; human, in vivo, 65 mg/m2) | Cmax ([3]; human, in vivo, 65 mg/m2) | apparent oral clearance ([3]; human, in vivo, po) |
| --- | --- | --- | --- | --- | --- | --- | --- | --- | --- | --- | --- | --- | --- | --- | --- | --- | --- | --- |
| C[C@@H](Oc1cc(-c2cnn(C3CCNCC3)c2)cnc1N)c1c(Cl)ccc(F)c1Cl [Crizotinib] | minimal and probably inadequate for the treatment of primary CNS cancers | 215 mg/m^2 | 5,326.3 (2,068.3 to 12,182.9) ng/mL/hr | 3,118.9 (1,693.8 to 4,278.5) ng/mL/hr | 4.1 h | 155.5 (55.8 to 324.4) ng/mL | 156 ng/mL | 13.1 h | 12.8 h |  |  |  |  |  |  |  |  |  |
| Cc1nc(Nc2ncc(C(=O)Nc3c(C)cccc3Cl)s2)cc(N2CCN(CCO)CC2)n1 [Dasatinib] | more limited than initially recognized | 50 mg/m^2 |  |  | 2.1 h |  |  |  |  | substrate of p-glycoprotein and BCRP | substrate of p-glycoprotein | No statistically significant changes | 4.4 h | 593.8 (388.1 to 1,521.1) ng/mL/hr | 120 ng/mL | 863.9 (721.9 to 1,006) ng/mL/hr | 210 ng/mL | 1,328 mL/min/m^2 |
